Patent US8173771B2, “Humanin receptor or humanin-like polypeptide receptor” (Keio Univeristy, priority 2005, dated 2012)
Peptide text beside a SMILES is read from it.

Biological target: T1, HN receptor (HNR; CNTF-R/WSX-1/gp130) on F11 cells (Mus musculus, UniProt O70394+O88507)
T1 construct: endogenous in cells; host or cells: F11 neurohybrid cells
T1 sequence (O70394 25-623): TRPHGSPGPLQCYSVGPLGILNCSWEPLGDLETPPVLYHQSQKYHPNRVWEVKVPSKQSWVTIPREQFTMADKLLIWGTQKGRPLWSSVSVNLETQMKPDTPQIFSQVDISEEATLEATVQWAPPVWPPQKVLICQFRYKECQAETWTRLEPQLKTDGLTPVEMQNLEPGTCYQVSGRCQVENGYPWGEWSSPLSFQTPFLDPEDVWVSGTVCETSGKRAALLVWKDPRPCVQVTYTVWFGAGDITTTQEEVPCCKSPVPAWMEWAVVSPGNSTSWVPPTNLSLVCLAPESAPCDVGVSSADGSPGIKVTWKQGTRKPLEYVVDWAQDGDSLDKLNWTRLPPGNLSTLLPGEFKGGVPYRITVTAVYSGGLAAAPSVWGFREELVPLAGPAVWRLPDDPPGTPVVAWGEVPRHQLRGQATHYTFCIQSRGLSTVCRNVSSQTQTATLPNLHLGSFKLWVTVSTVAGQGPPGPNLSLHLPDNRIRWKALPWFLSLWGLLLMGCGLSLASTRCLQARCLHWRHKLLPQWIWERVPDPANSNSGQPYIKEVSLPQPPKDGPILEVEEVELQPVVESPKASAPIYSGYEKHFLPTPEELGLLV
T1 sequence (O88507 23-342): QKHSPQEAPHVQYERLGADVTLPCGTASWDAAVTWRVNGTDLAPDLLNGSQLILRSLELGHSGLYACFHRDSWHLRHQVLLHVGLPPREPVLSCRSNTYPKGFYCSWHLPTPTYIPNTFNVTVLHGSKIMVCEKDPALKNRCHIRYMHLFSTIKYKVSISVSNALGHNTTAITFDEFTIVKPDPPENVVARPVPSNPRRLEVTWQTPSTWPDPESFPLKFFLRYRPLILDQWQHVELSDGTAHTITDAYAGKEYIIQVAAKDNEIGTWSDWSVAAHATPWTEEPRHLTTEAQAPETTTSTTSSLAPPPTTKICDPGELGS
T1 sequence (Q00560 23-917 partner): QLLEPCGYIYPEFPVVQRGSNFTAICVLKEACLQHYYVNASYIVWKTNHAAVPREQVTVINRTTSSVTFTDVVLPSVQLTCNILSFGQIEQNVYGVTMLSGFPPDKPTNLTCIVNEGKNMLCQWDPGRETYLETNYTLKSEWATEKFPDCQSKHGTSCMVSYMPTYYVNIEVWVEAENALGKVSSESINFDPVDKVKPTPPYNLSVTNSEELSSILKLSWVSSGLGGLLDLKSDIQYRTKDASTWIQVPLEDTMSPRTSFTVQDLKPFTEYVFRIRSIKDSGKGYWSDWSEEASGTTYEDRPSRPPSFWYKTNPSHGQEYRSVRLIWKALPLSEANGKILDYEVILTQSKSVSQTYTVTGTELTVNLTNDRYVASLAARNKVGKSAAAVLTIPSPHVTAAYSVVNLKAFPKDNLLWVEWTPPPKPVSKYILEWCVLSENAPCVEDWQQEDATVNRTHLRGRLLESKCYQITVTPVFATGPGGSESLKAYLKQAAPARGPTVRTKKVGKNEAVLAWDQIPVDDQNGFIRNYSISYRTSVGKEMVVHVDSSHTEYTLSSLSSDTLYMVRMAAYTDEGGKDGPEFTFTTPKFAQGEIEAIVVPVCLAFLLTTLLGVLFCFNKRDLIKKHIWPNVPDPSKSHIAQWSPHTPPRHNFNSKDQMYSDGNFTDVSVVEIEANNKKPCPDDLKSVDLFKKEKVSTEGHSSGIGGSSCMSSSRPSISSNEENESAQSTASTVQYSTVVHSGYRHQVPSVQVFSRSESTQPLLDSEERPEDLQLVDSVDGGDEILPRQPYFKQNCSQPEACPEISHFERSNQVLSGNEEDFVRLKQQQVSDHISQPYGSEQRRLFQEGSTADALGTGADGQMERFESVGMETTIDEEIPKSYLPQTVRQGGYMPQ
Assay: Immunofluorescence-based binding assay (2): biotin-HN / biotin-HNG binding to F11 cells
Protocol: A) F11 cells were seeded on 96-well plates coated with poly-L-lysine (7×10^3 cells/well). An indicated amount of biotin-HN or biotin-HNG was added to the cells with or without 10 μM of unlabelled HNG or HNA, followed by a binding assay based on immunofluorescence reaction (2) (left panels). On the other hand, F11 cells were transfected with 0.5 μg of pcDNA3.1/GS-human CNTF-R, pEF1/MycHis-human WSX-1, and 1.0 μg of pCAG-human gp130. At 24 hrs after the transfection, the cells were re-seeded on 96-well plates coated with poly-L-lysine (7×10^3 cells/well). After 36 hrs the re-seeding, an indicated amount of biotin-HN or biotin-HNG was added to the cells with or without 10 μM of unlabeled HNG or HNA, followed by a binding assay based on immunofluorescence reaction (2) (right panels).
B) F11 cells were transfected with 0.5 μg of pRNA-U1.6/Shuttle vector, pRNA-U6.1/Shuttle-WSX-1 siRNA, pRNA-U6.1/Shuttle-CNTF-R siRNA, both pRNA-U6.1/Shuttle-WSX-1 siRNA and pRNA-U6.1/Shuttle-CNTF-R siRNA (0.5 μg each), pRNA-U6.1/Shuttle-FPR2 siRNA or pRNA-U6.1/Shuttle-LIFR siRNA. The total amount of vectors was adjusted to be 1.0 μg by including a backbone vector. At 24 hrs after the transfection, an indicated amount of biotin-HNG was added with or without unlabeled HNG, followed by a binding assay based on immunofluorescence reaction (2) at 72 hrs after the transfection.
E) F11 cells on 6-well plate (7×10^4 cells/well) were transfected with 1.0 μg of pRNA-U6.1/Shuttle vector, pRNA-U6.1/Shuttle-Bax siRNA, or both pRNA-U6.1/Shuttle-WSX-1 siRNA and pRNA-U6.1/Shuttle-CNTF-R siRNA (0.5 μg each). At 72 hrs after the transfection, the cells were added with an indicated amount of biotin-HN with or without unlabeled HN or HNA (100 μM) and subjected to an HN-binding assay based on immunofluorescence.
F11 cells (7×10^4/well in 6-well plates) were replated into 96-well plates (7×10^3 cells/well) at 24 hrs after transfection with indicated amounts of the plasmids encoding mycHis-WSX or V5-CNTF-R, and with PCAG-human gp130 if required. At 36 hrs after transfection, the cells were added with biotin-labeled HN or HNG of indicated concentrations in the presence or the absence of HNG (S14G-HN) or HNA (C8A-HN) of indicated concentrations (Hashimoto et al., 2001 a). After 6 hrs incubation, they were fixed with 4% paraformaldehyde in PBS for 30 min. After washing with PBS, cells were stained with FITC-conjugated avidin (Molecularprobe, Eugene, Oreg., USA). Immunofluorescence intensity was measured (excitation=485 nm, emission=535 nm) with a spectrofluorometer (Wallac1420 ARVOsx Multi Label Counter). Immunohistochemical analysis was done with a laser-scanning, confocal microscope LSM (Carl Zeiss, Germany).

concentration of saturation of binding (biotin-HNG, concentration-dependent binding): 10 nM | binding to F11 cells (expression of FPR2 or LIFR decreased by siRNA): not be affected | inhibition of binding by over-addition of unlabeled peptide (specificity of binding): almost completely inhibit
SMILES: CC[C@H](C)[C@H](NC(=O)[C@H](CCC(=O)O)NC(=O)CNC(=O)[C@@H](NC(=O)[C@H](CC(C)C)NC(=O)[C@H](CC(C)C)NC(=O)[C@H](CC(C)C)NC(=O)[C@H](CC(C)C)NC(=O)[C@H](CS)NC(=O)[C@H](CO)NC(=O)[C@H](Cc1ccccc1)NC(=O)CNC(=O)[C@H](CCCNC(=N)N)NC(=O)[C@@H]1CCCN1C(=O)[C@H](C)NC(=O)[C@@H](N)CCSC)[C@@H](C)O)C(=O)N[C@@H](CC(=O)O)C(=O)N[C@@H](CC(C)C)C(=O)N1CCC[C@H]1C(=O)N[C@H](C(=O)N[C@@H](CCCCN)C(=O)N[C@@H](CCCNC(=N)N)C(=O)N[C@@H](CCCNC(=N)N)C(=O)N[C@@H](C)C(=O)O)C(C)C [HNG, S14 G-Humanin] (H-MAPRGFSCLLLLTGEIDLPVKRRA-OH; N-terminus and C-terminus assumed)
